The test system of experiment [1] is BxPC-3 human pancreatic adenocarcinoma cells. The experiment is described as follows: Comparative study of the activity of camptothecins (CCK-8 cell killing). The settings on record: for Emax: read-out: Maximum Killing (%), BxPC-3, killing days 4 days. Type of experiment: cell-based. The procedure:
(§1) KB oral epithelial cancer cells (purchased from: ATCC) were cultured in DMEM medium supplemented with 10% FBS; NCI-N87 human gastric cancer cells (purchased from: ATCC) were cultured in RPMI1640 medium supplemented with 10% FBS; HT29 human colon cancer cells (purchased from: ATCC) were cultured in RPMI1640 medium supplemented with 10% FBS; and BxPC-3 human pancreatic adenocarcinoma cells (purchased from: ATCC) were cultured in RPMI1640 medium supplemented with 10% FBS.
(§2) Using corresponding media described above and in cell plates, the density of KB cells was adjusted to 2×10^4/mL; the density of NCI-N87 cells was adjusted to 5×10^4/mL; the density of HT29 cells was adjusted to 5×10^4/mL, and the cells were plated onto 96-well transparent flat bottom plates, at 100 µL/well, and cultured overnight; and the density of BxPC-3 cells was adjusted to 5×10^4/mL.
(§3) Samples to be detected were diluted to 20 μM with corresponding media, then 5-fold gradient dilution was performed, and 9 concentrations were obtained. A well having cells but with no any sample added was set as the well showing maximum cell growth; and a well having no cells was set as the well of medium background. The diluted samples were added into the cell plates, at 100 μL/well, which were then incubated in a C02 incubator for 96 hours. After the incubation, CCK-8 (purchased from: DOJINDO LABORATORIES) prepared beforehand was added into the plates, at 20 μL/well, and after further 3 hours incubation in the C02 incubator, […] were read on a microplate reader.
(§4) Data obtained was fitted to a four-parameter curve using software Prism7, and equation for calculating maximum killing is: maximum killing (%)=1−(OD450 value of the well showing maximum killing—OD450 value of the well of medium background)/(OD450 value of the well showing maximum cell growth—OD450 value of the cell of medium background)[…].

Experiment [2] has as its system NCI-N87 human gastric cancer cells. The description is as above. The experiment is classed as cell-based. The procedure: as §1, §2, §3, §4
Experiment [3] relates to HT29 human colon cancer cells. The description is as above. Type of experiment: cell-based. The note with it: HT29, killing days 4 days. The procedure: as §1, §2, §3, §4
The subject of experiment [4] is KB oral epithelial cancer cells. Described as above. The settings on record: killing days 4 days. Type of experiment: cell-based. As for the experimental part: as §1, §2, §3, §4
Experiment [5] addresses T1, Trop-2 on BxPC-3 cells (human, UniProt P09758 27-323).
T1 construct: whole, on cells; also called Trop-2-positive BxPC-3 tumor cells
T1 sequence (looked up): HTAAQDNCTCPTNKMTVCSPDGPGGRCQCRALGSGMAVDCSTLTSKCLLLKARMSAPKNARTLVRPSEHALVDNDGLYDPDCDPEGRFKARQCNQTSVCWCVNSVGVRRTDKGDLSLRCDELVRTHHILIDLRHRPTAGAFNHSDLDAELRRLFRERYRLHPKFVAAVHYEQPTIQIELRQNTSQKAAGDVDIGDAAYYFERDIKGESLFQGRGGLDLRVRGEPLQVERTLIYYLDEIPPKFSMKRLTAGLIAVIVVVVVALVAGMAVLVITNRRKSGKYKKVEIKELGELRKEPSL
The experiment is described as follows: flow cytometry, fluorescently labeled drug on BxPC-3 cells, on ice 1 h (mean ± SD, n = 2). The procedure:
(§5) Different concentrations (1, 3, 10, 30, 100, 300, 1000, 3000, 10000, 30000, and 100000 ng/mL) of fluorescently labeled Trop2-ADC-14 and the mAb in Trop2-ADC-14 (i.e., antibody h23-12) were incubated with BxPC-3 cells (purchased from: ATCC) on ice for 1 hour in dark, and then the cells were centrifuged to remove supernatant, washed with PBS, re-suspended, and the fluorescence intensity of the drugs bound to the cells was measured with a flow cytometer (BD ACCURI C6 PLUS). The experiment was repeated once.
On the technique in general: In flow cytometry, cells or beads pass a laser one at a time.

The target of experiment [6] is T1, Trop-2 on BxPC-3 cells. The experiment is described as follows: flow cytometry, fluorescently labeled antibody on BxPC-3 cells, on ice 1 h (mean ± SD, n = 2). As for the experimental part:
as §5

Where [7] appears, read: Homo sapiens, NCI-N87, 96 h, read-out: Maximum Killing (%), NCI-N87, killing days 4 days.
Setting [8] is: Homo sapiens, BXPC-3, 96 h, BxPC-3, killing days 4 days.

Several values for one entry are separate records, joined by “and”; a condition that tells them apart may be missing. Equal entries are not always repeated. Where two headings read alike, the source gives them in different places.

`CC[C@@]1(O)C(=O)OCc2c1cc1n(c2=O)Cc2c-1nc1ccc(N)c3c1c2CC[S@+]3[O-]` [Compound 14-P1]: the Emax in experiment [1] (Homo sapiens, BXPC-3, 96 h) stood at 38.8%; in experiment [2] (setting [7]), 42.5%.

What is called EC50 is the concentration that produces a half-maximal response. In experiment [1] (setting [8]), `CC[C@@]1(O)C(=O)OCc2c1cc1n(c2=O)Cc2c-1nc1ccc(N)c3c1c2C(F)(F)CS3` [Compound 13] yielded an EC50 of 1.41 nM. In experiment [1] (Homo sapiens, BXPC-3, 96 h), the Emax is 98.9%.

With `CC[C@@]1(O)C(=O)OCc2c1cc1n(c2=O)Cc2c-1nc1ccc(N)c3c1c2CCC3` [MWC-1, reference compound], the EC50 stood at 8.68 nM in experiment [3]; 9.89 nM in experiment [3] (Homo sapiens, HT-29, 96 h); 14.8 nM in experiment [4] (96 h); 4.44 nM in experiment [2] (Homo sapiens, NCI-N87, 96 h, NCI-N87, killing days 4 days, read-out: EC50); 5.22 nM in experiment [2] (NCI-N87, killing days 4 days, read-out: EC50). Moreover, the Emax in experiment [2] (setting [7]) is 93.4%.

`CC[C@@]1(O)C(=O)OCc2c1cc1n(c2=O)Cc2c-1nc1ccc(N)c3c1c2CC[S@@+]3[O-]` [Compound 14-P2]: the Emax in experiment [1] (Homo sapiens, BXPC-3, 96 h) came to 43.3%; in experiment [2] (setting [7]), 68.4%.

Consider `CC[C@@]1(O)C(=O)OCc2c1cc1n(c2=O)Cc2c-1nc1ccc(N)c3c1c2C1CC1C3` (some centres unmarked) [Compound 7], for which the Emax in experiment [1] (Homo sapiens, BXPC-3, 96 h) was determined as 94.4%; in experiment [2] (setting [7]) it was 87.9%.

Regarding `CC[C@@]1(O)C(=O)OCc2c1cc1n(c2=O)Cc2c-1nc1cc(F)c(N)c3c1c2C(F)(F)CS3` [Compound 27], the Emax was 97.7% in experiment [1] (Homo sapiens, BXPC-3, 96 h) and 90.6% in experiment [2] (setting [7]).

In the case of `CC[C@@]1(O)C(=O)OCc2c1cc1n(c2=O)Cc2c-1nc1cc(F)c(N)c3c1c2C(F)(F)CO3` [Compound 19], in experiment [1] (Homo sapiens, BXPC-3, 96 h), the Emax came out at 97.4%.

`CC[C@@]1(O)C(=O)OCc2c1cc1n(c2=O)Cc2c-1nc1cc(F)c(C)c3c1c2[C@@H](NC(=O)CO)CC3` [Dxd]: the “Maximum Killing (%)” value is 91.8% in experiment [1] (BxPC-3, killing days 4 days); 87.4% and 85.4% in experiment [3]; 94.7% and 94.9% in experiment [4]; 92.8% and 92.7% and 94.6% in experiment [2] (NCI-N87, killing days 4 days). For the same molecule, the concentration for a half-maximal effect (EC50) in experiment [1] (BxPC-3, killing days 4 days, read-out: EC50) was 24.3 nM; in experiment [3] it was 127 nM and 133 nM.

As for `CC[C@@]1(O)C(=O)OCc2c1cc1n(c2=O)Cc2c-1nc1ccc(N)c3c1c2C(C)(C)CC3` [Compound 1], in experiment [2] (setting [7]), the Emax is 92.1%.

On to `CC[C@@]1(O)C(=O)OCc2c1cc1n(c2=O)Cc2c-1nc1cc(F)c(N)c3c1c2C(F)(F)CC3` [Compound 20], for which the EC50 is 0.683 nM in experiment [1] (setting [8]) and 0.059 nM in experiment [2] (Homo sapiens, NCI-N87, 96 h, NCI-N87, killing days 4 days). Moreover, the Emax turned out to be 99.2% in experiment [1] (Homo sapiens, BXPC-3, 96 h) and 93.2% in experiment [2] (setting [7]).

`CC[C@@]1(O)C(=O)OCc2c1cc1n(c2=O)Cc2c-1nc1ccc(N)c3c1c2CCS3` [Compound 12]: the Emax in experiment [1] (Homo sapiens, BXPC-3, 96 h) was 98.5%; in experiment [2] (setting [7]), 94.9%.

As for `CCC1(O)CC(=O)OCc2c1cc1n(c2=O)Cc2c-1nc1ccc(N)c3c1c2CCC3` (centres unmarked) [Compound 17], the 50% effective concentration (EC50) in experiment [2] (Homo sapiens, 96 h, NCI-N87, killing days 4 days, read-out: EC50) was determined as 7.43 nM. The Emax in experiment [2] (Homo sapiens, 96 h, NCI-N87, killing days 4 days, read-out: Maximum Killing (%)) was 87.6%.

As to `CC[C@@]1(O)C(=O)OCc2c1cc1n(c2=O)Cc2c-1nc1ccc(N)c3c1c2CCO3` [Compound 14], the 50% effective concentration (EC50) in experiment [1] (setting [8]) amounted to 6.46 nM. Further, in experiment [1] (Homo sapiens, BXPC-3, 96 h), the Emax was 84.7%.

Regarding `CC[C@@]1(O)C(=O)OCc2c1cc1n(c2=O)Cc2c-1nc1ccc(N)c3c1c2C(F)(F)CO3` [Compound 31], the Emax in experiment [1] (Homo sapiens, BXPC-3, 96 h) is 93.7%; in experiment [2] (setting [7]), 90.7%.

As to `CC[C@@]1(O)C(=O)OCc2c1cc1n(c2=O)Cc2c-1nc1cc(F)c(N)c3c1c2CCO3` [Compound 18], the Emax in experiment [1] (Homo sapiens, BXPC-3, 96 h) came out at 99.6%; in experiment [2] (setting [7]), 92.9%.

As to `CC[C@@]1(O)C(=O)OCc2c1cc1n(c2=O)Cc2c-1nc1cc(F)c(N)c3c1c2CCS3` [Compound 26], the Emax turned out to be 99.1% in experiment [1] (Homo sapiens, BXPC-3, 96 h) and 93.4% in experiment [2] (setting [7]).

As for `CC[C@@]1(O)C(=O)OCc2c1cc1n(c2=O)Cc2c-1nc1ccc(N)c3c1c2CCS3(=O)=O` [Compound 15], the Emax in experiment [1] (Homo sapiens, BXPC-3, 96 h) stood at 87.9%; in experiment [2] (setting [7]) it was 83.6%.

B1: Trop2-ADC-14 (antibody, human IgG1, kappa, V domains shown)
VH: QVQLVQSGAEVKKPGASVKVSCKASGYTFTSYWMHWVRQAPGQGLEWMGEITPSDNYGSYNQKFKGRVTITRDTSTSTAYMELSSLRSEDTAVYYCARGHGNYVSFDYWGQGTLVTVSS
VL: DIQMTQSPSSLSASVGDRVTITCRASQDISNYLNWYQQKPGKAPKLLIYYTSRLESGVPSRFSGSGSGTDFTLTISSLQPEDFATYFCQQGYTLPPYTFGQGTKLEIKR
modifications: drug-containing linker MWF-L6 (Compound 3 payload) bridged on cysteines of the reduced disulfide bonds, DAR 4.1; positions not given
notes: Antibody-drug conjugate: antibody h23-12 with MWF-L6, site-specific bridged conjugation, DAR 4.1; also called ADC 1o; h23-12 conjugated with drug-containing linker MWF-L6
For the molecule B1, in the experiment with Trop-2 on BxPC-3 cells [5], the EC50 came out at 1.3 µg/mL.

B2: Antibody h23-12 (antibody, human IgG1, kappa, V domains shown)
VH: B1 VH
VL: B1 VL
notes: Monoclonal antibody; also called the mAb in Trop2-ADC-14; anti-Trop-2 antibody h23-12
The molecule B2 had an EC50 in the experiment with Trop-2 on BxPC-3 cells [6] of 1.14 µg/mL.
